Laboratory results as given in patent US7652029B2, “Therapeutic compound and treatments” (priority 2004, dated 2010).

Legend:
PC-3 = assay: NCI multiple cell line test (SRB); assay type: cell-based, human; conditions: PC-3 (Prostate Cancer), 48 h
NCI-H522 = assay: NCI multiple cell line test (SRB); assay type: cell-based, human; conditions: NCI-H522 (Non-Small Cell Lung Cancer), 48 h
OVCAR-5 = assay: NCI multiple cell line test (SRB); assay type: cell-based, human; conditions: OVCAR-5 (Ovarian Cancer), 48 h
UACC-257 = assay: NCI multiple cell line test (SRB); assay type: cell-based, human; conditions: UACC-257 (Melanoma), 48 h
TK-10 = assay: NCI multiple cell line test (SRB); assay type: cell-based, human; conditions: TK-10 (Renal Cancer), 48 h
EKVX = assay: NCI multiple cell line test (SRB); assay type: cell-based, human; conditions: EKVX (Non-Small Cell Lung Cancer), 48 h
SK-MEL-5 = assay: NCI multiple cell line test (SRB); assay type: cell-based, human; conditions: SK-MEL-5 (Melanoma), 48 h
[1] = test system: human endothelial vein cells (HUVECs); assay: Growth response, MTT dye conversion assay; assay type: cell-based; conditions: FIG. 6; 48 hours; compared with cisplatin
HOP-92 = assay: NCI multiple cell line test (SRB); assay type: cell-based, human; conditions: HOP-92 (Non-Small Cell Lung Cancer), 48 h
HOP-92 cells = assay: Growth response, MTT dye conversion assay; assay type: cell-based, human; conditions: low doses (FIG. 12 as printed)
SNB-19 = assay: NCI multiple cell line test (SRB); assay type: cell-based, human; conditions: SNB-19 (CNS Cancer), 48 h
SF-268 = assay: NCI multiple cell line test (SRB); assay type: cell-based, human
U251 = assay: NCI multiple cell line test (SRB); assay type: cell-based, human; conditions: U251 (CNS Cancer), 48 h
HCT-116 = assay: NCI multiple cell line test (SRB); assay type: cell-based, human; conditions: HCT-116 (Colon Cancer), 48 h
Lewis murine lung cells = assay: Growth response, MTT dye conversion assay; assay type: cell-based; conditions: FIG. 9; mouse lung cell line
[2] = test system: normal human lung fibroblasts; assay: Growth response, MTT dye conversion assay; assay type: cell-based; conditions: compared with cisplatin
OVCAR-3 = assay: NCI multiple cell line test (SRB); assay type: cell-based, human; conditions: OVCAR-3 (Ovarian Cancer), 48 h
NCI-H226 = assay: NCI multiple cell line test (SRB); assay type: cell-based, human; conditions: NCI-H226 (Non-Small Cell Lung Cancer), 48 h
CCRF-CEM = assay: NCI multiple cell line test (SRB); assay type: cell-based, human; conditions: CCRF-CEM (Leukemia), 48 h
CAKI-1 = assay: NCI multiple cell line test (SRB); assay type: cell-based, human; conditions: CAKI-1 (Renal Cancer), 48 h
A549/ATCC = assay: NCI multiple cell line test (SRB); assay type: cell-based, human; conditions: A549/ATCC (Non-Small Cell Lung Cancer), 48 h
IGROV1 = assay: NCI multiple cell line test (SRB); assay type: cell-based, human; conditions: IGROV1 (Ovarian Cancer), 48 h
HCT-15 = assay: NCI multiple cell line test (SRB); assay type: cell-based, human; conditions: HCT-15 (Colon Cancer), 48 h
OVCAR-8 = assay: NCI multiple cell line test (SRB); assay type: cell-based, human; conditions: OVCAR-8 (Ovarian Cancer), 48 h
BT-549 = assay: NCI multiple cell line test (SRB); assay type: cell-based, human; conditions: BT-549 (Breast Cancer), 48 h
UACC-62 = assay: NCI multiple cell line test (SRB); assay type: cell-based, human; conditions: UACC-62 (Melanoma), 48 h
[3] = Homo sapiens, read-out: −log10GI50 (converted)

SMILES: COC(=O)C1=C(C(=O)OC)SC2(S1)C(C(=O)OC)=C(C(=O)OC)SC1=C2c2cccc(OC)c2N(C(=O)CN2C(=O)CCC2=O)C1(C)C [MT477]
- IC50 (PC-3; [3]): 1.45 µM
- −log10LC50 (PC-3): 4.64 molar
- −log10TGI (PC-3): 5.35 molar
- IC50 (NCI-H522; [3]): 9.33 µM
- −log10LC50 (NCI-H522): * (effect not reached at maximum dose of 0.05 millimolar)
- −log10TGI (NCI-H522): 4.31 molar
- IC50 (OVCAR-5; [3]): 8.91 µM
- −log10LC50 (OVCAR-5): 4.53 molar
- −log10TGI (OVCAR-5): 4.79 molar
- IC50 (UACC-257; [3]): 1.48 µM
- −log10LC50 (UACC-257): 4.55 molar
- −log10TGI (UACC-257): 5.53 molar
- IC50 (TK-10; [3]): 1.58 µM
- −log10LC50 (TK-10): 4.75 molar
- −log10TGI (TK-10): 5.34 molar
- −log10LC50 (EKVX): 4.34 molar
- −log10TGI (EKVX): 4.7 molar
- IC50 (EKVX; [3]): 8.51 µM
- IC50 (SK-MEL-5; [3]): 6.17 µM
- −log10LC50 (SK-MEL-5): * (effect not reached at maximum dose of 0.05 millimolar)
- −log10TGI (SK-MEL-5): 4.51 molar
- cytotoxicity profile (growth response) [1]: cytotoxicity profile that is similar to cisplatin
- −log10LC50 (HOP-92): 4.6 molar
- −log10TGI (HOP-92): 5.21 molar
- IC50 (HOP-92; [3]): 1.66 µM
- growth response at low concentrations (HOP-92 cells): effective even at very low doses, including micromolar dosages
- IC50 (SNB-19; [3]): 7.94 µM
- −log10LC50 (SNB-19): 4.46 molar
- −log10TGI (SNB-19): 4.78 molar
- GI50 (SF-268; Homo sapiens, SF-268, NCI-SF268, MT477 ACTUAL): 2.51 µM
- IC50 (SF-268; Homo sapiens, SF-268 (CNS Cancer), 48 h, read-out: −log10GI50 (converted)): 2.14 µM
- Activity against CNS cancer NCI-SF268 (SF-268; MT477 ACTUAL): Yes
- −log10LC50 (SF-268; SF-268 (CNS Cancer), 48 h): * (effect not reached at maximum dose of 0.05 millimolar)
- −log10TGI (SF-268; SF-268 (CNS Cancer), 48 h): 4.97 molar
- IC50 (U251; Homo sapiens, U-251, read-out: −log10GI50 (converted)): 2 µM
- −log10LC50 (U251): 4.72 molar
- −log10TGI (U251): 5.14 molar
- −log10LC50 (HCT-116): 5.48 molar
- −log10TGI (HCT-116): 5.75 molar
- IC50 (HCT-116; [3]): 0.955 µM
- growth response (Lewis murine lung cells): effective in human and mouse cell lung lines
- growth response ([2]; FIG. 10, normal human lung cells at 24 and 48 hours): more effective than cisplatin
- cytotoxicity profile (growth response) ([2]; FIGS. 1 and 2, 48 hours): cytotoxicity profile that is similar to cisplatin
- IC50 (OVCAR-3; [3]): 0.813 µM
- −log10LC50 (OVCAR-3): 5.39 molar
- −log10TGI (OVCAR-3): 5.74 molar
- IC50 (NCI-H226; [3]): 7.08 µM
- −log10LC50 (NCI-H226): * (effect not reached at maximum dose of 0.05 millimolar)
- −log10TGI (NCI-H226): 4.72 molar
- −log10LC50 (CCRF-CEM): * (effect not reached at maximum dose of 0.05 millimolar)
- −log10TGI (CCRF-CEM): * (effect not reached at maximum dose of 0.05 millimolar)
- IC50 (CCRF-CEM; [3]): 3.24 µM
- −log10LC50 (CAKI-1): 4.48 molar
- −log10TGI (CAKI-1): 4.83 molar
- IC50 (CAKI-1; [3]): 6.61 µM
- −log10LC50 (A549/ATCC): * (effect not reached at maximum dose of 0.05 millimolar)
- −log10TGI (A549/ATCC): 4.77 molar
- IC50 (A549/ATCC; [3]): 3.8 µM
- IC50 (IGROV1; Homo sapiens, IGROV-1, read-out: −log10GI50 (converted)): 17.8 µM
- −log10LC50 (IGROV1): * (effect not reached at maximum dose of 0.05 millimolar)
- −log10TGI (IGROV1): 4.3 molar
- −log10LC50 (HCT-15): 4.69 molar
- −log10TGI (HCT-15): 5.27 molar
- IC50 (HCT-15; [3]): 1.48 µM
- IC50 (OVCAR-8; [3]): 6.92 µM
- −log10LC50 (OVCAR-8): 4.37 molar
- −log10TGI (OVCAR-8): 4.77 molar
- −log10LC50 (BT-549): * (effect not reached at maximum dose of 0.05 millimolar)
- −log10TGI (BT-549): 4.86 molar
- IC50 (BT-549; [3]): 3.55 µM
- IC50 (UACC-62; [3]): 1.17 µM
- −log10LC50 (UACC-62): 5.03 molar
- −log10TGI (UACC-62): 5.55 molar
